One assay has as its target PDK1 Direct kinase (Homo sapiens (Human), UniProt O15530). Briefly: Kinase-specific FRET-based Z'-LYTE assay against PDK1 Direct kinase. The format is biochemical. To be noted: for IC50: read-out: PDK1 IC50. The procedure:
The compounds of Formula (I) and (II) were tested in the biological test named Kinase-specific Z′-LYTE® assay (Invitrogen Corporation, Life Technologies).

For assay [1], the system named is GSCs isolated from U87MG cells. Briefly: GSC proliferation, MTS assay. In kind it is cell-based, human. To be noted: Homo sapiens, U-87 MG, 168 h; seven days of treatment, MTS assay. The procedure:
(§1) The U87MG cell line was obtained from the National Institute for Cancer Research of Genoa (Italy) and cultured in DMEM 10% FBS and 2 mM glutamine. To isolate GSCs, approximately 2.0×10^6 cells were suspended in 1 mL of a defined serum-free Neural Stem Cell (NSC) medium (Daniele, S., et al., Modulation of A1 and A2B adenosine receptor activity: a new strategy to sensitise glioblastoma stem cells to chemotherapy. Cell death & disease, 2014. 5(11): p. e1539). After 3-4 days of culture, the neurospheres were collected, suspended in NSC medium, dissociated into single cells, and plated for the assays. For the long-term treatment of cells, NSC or complete medium containing drugs was replaced every two to three days.
(§2) The human U87MG cells or GSCs were seeded at a density of 3×10^3 cells/well. After 24 h, the cells were treated from one to seven days with fresh growth medium containing different concentrations of SA16, SA23 or IB35. Following the treatment period, cell proliferation was determined using the MTS assay according to manufacturer's instruction. The absorbance of formazan at […] was measured in a colorimetric assay with an automated plate reader (Victor Wallac 2, Perkin Elmer). The results were calculated by subtracting the mean background from the values obtained from each evaluation and were expressed as the percentage of the control (untreated cells). Sigmoid dose-response curve was generated, from which the IC50 values were derived.
The inhibition of PDK1 has been reported as potentially effective therapeutic approach to reduce self-renewal and propagation of GSCs (Signore, M., et al., Combined PDK1 and CHK1 inhibition is required to kill glioblastoma stem-like cells in vitro and in vivo. Cell death & disease, 2014. 5(5): p. e1223). On this basis, the effects of SA16, SA23 and IB35 on GSCs, isolated from U87MG cells as previously reported, were evaluated (Daniele, S., et al., Modulation of A1 and A28 adenosine receptor activity: a new strategy to sensitise glioblastoma stem cells to chemotherapy. Cell death & disease, 2014. 5(11): p. e1539). U87MG-derived GSCs were incubated with the indicated concentrations of IB35, SA23 or SA16 for four days (FIG. 8) or seven days (FIG. 9). At the end of the treatment periods, cell proliferation was measured using the MTS assay. The data were expressed as a percentage with respect to that of untreated cells (control), which was set to 100%, and are the mean values±SEM of three independent experiments, each performed in duplicate. IC50 values after seven days of treatment were calculated from sigmoid dose-response curve (FIG. 9). The significance of the differences was determined with a one-way ANOVA with Bonferroni post-test (** p<0.01, *** p<0.001 vs. control).
(In general: Tetrazolium dyes change colour on reduction, which living cells bring about.)

The next assay has as its system U87MG cells. Briefly: U87MG cell proliferation, MTS assay. In kind it is cell-based, human. Conditions: Homo sapiens, U-87 MG; 72 h, MTS assay; read-out: IC50 U87MG. The procedure:
as §1, §2
As representative GBM cell line, the above U87MG cells were used; this human cell line resulted an appropriate model to study the effects of PDK1 inhibition, because it is deficient for the tumour suppressor phosphatase and tensin homologue (PTEN), a negative regulator of the PI3K/AKT pathway (Wang, S. I., et al., Somatic mutations of PTEN in glioblastoma multiforme. Cancer research, 1997. 57(19): p. 4183-4186). To examine the effects of SA16, SA23 and IB35 on GBM cell growth/survival, U87MG cells were incubated with different concentrations of the new compounds (1 nM-10 μM) for 24 and 72 h. Specifically, U87MG cells were treated in complete medium with different concentrations of SA16, SA23 or IB35 (1 nM-10 μM) for 24 h (A) or 72 h (B). At the end of treatment, cell proliferation was measured using the MTS assay. The data are expressed as a percentage with respect to that of untreated cells (control), which was set to 100%, and are the mean values±SEM of three independent experiments, each performed in duplicate. The significance of the differences reported in FIGS. 1 and 2 was determined with a one-way ANOVA with Bonferroni post-test (* p<0.05, **p<0.01, *** p<0.001 vs. control cells).

Each structure is given as a SMILES string. A value given as a limit tells only on which side of the number the result lay.

By inhibition is commonly meant the relative decrease from the control value, in per cent. A low value points to little suppression. As a reminder, the IC50 is the concentration at which inhibition is half-maximal.

PDK1 Direct kinase, sequence (O15530 whole entry): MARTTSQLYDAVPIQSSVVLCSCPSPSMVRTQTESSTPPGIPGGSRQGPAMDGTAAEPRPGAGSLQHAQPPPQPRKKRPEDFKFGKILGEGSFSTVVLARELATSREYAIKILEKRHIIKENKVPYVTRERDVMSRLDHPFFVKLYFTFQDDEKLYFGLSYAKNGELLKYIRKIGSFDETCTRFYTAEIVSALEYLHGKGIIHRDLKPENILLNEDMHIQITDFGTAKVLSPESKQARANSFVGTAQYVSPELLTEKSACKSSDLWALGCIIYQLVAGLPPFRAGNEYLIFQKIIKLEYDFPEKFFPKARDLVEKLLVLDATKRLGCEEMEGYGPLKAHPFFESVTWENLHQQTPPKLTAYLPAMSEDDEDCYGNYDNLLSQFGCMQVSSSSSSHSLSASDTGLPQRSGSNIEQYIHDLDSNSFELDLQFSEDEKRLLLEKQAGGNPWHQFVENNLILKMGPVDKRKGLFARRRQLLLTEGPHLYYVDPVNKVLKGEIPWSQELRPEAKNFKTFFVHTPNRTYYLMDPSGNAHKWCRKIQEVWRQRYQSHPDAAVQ

Turning to `O=C1Nc2ccc(NC(=O)c3cccc(NC(=O)c4cccn(Cc5ccc(F)c(F)c5)c4=O)c3)cc2C1=Cc1cccs1` (mixture of isomers) [DD41, (E/Z)-1-(3,4-difluorobenzyl)-2-oxo-N-(3-((2-oxo-3-(thiophen-2-ylmethylene)indolin-5-yl)carbamoyl)phenyl)-1,2-dihydropyridine-3-carboxamide], the inhibition at 10 µM against PDK1 Direct kinase worked out at 26%.

For the compound `O=C(CCCNC(=O)c1cccn(Cc2ccc(F)c(F)c2)c1=O)Nc1ccc2c(c1)C(=Cc1cccs1)C(=O)N2` (mixture of isomers) [DF9, (E/Z)-1-(3,4-difluorobenzyl)-2-oxo-N-(4-oxo-4-((2-oxo-3-(thiophen-2-ylmethylene)indolin-5-yl)amino)butyl)-1,2-dihydropyridine-3-carboxamide], on PDK1 Direct kinase, the inhibition at 10 µM is above 50% and the IC50 was 5880 nM.

Regarding `O=C(CNC(=O)c1cccn(Cc2ccc(F)c(F)c2)c1=O)Nc1ccc2c(c1)C(=Cc1cccs1)C(=O)N2` (mixture of isomers) [IB36, (E/Z)-1-(3,4-difluorobenzyl)-2-oxo-N-(2-oxo-2-((2-oxo-3-(thiophe-2-ylmethylene)indolin-5-yl)amino)ethyl)-1,2-dihydropyridine-3-carboxamide], at PDK1 Direct kinase, at 10 µM the inhibition was 19%.

In turn, `O=C(CCNC(=O)c1cccn(Cc2ccc(F)c(F)c2)c1=O)Nc1ccc2c(c1)/C(=C/c1cnc[nH]1)C(=O)N2` [DD21, (Z)—N-(3-((3-((1H-imidazol-5-yl)methylene)-2-oxoindolin-5-yl)amino)-3-oxopropyl)-1-(3,4-difluorobenzyl)-2-oxo-1,2-dihydropyridine-3-carboxamide] registered an inhibition at 10 µM against PDK1 Direct kinase above 50%.

Take `O=C(CCNC(=O)c1cccn(Cc2ccc(F)c(F)c2)c1=O)Nc1ccc2c(c1)/C(=C/c1cccs1)C(=O)N2` [DD22, (E/Z)-1-(3,4-difluorobenzyl)-2-oxo-N-(3-oxo-3-((2-oxo-3-(thiophen-2-ylmethylene)indolin-5-yl)amino)propyl)-1,2-dihydropyridine-3-carboxamide]: at PDK1 Direct kinase, the inhibition at 10 µM was above 50% and the IC50 worked out at 1340 nM.

In turn, `O=C(CCNC(=O)c1cccn(Cc2ccc(F)c(F)c2)c1=O)Nc1ccc2c(c1)/C(=C/c1ccc(F)cc1)C(=O)N2` [DD23, (Z)-1-(3,4-difluorobenzyl)-N-(3-((3-(4-fluorobenzylidene)-2-oxoindolin-5-yl)amino)-3-oxopropyl)-2-oxo-1,2-dihydropyridine-3-carboxamide] displayed an inhibition at 10 µM at PDK1 Direct kinase of 15%.

As to `O=C(CCNC(=O)c1cccn(Cc2ccc(F)c(F)c2)c1=O)Nc1ccc2c(c1)/C(=C/c1ncc[nH]1)C(=O)N2` [DD25, (Z/E)-N-(3-((3-((1H-imidazol-2-yl)methylene)-2-oxoindolin-5-yl)amino)-3-oxopropyl)-1-(3,4-difluorobenzyl)-2-oxo-1,2-dihydropyridine-3-carboxamide], the inhibition at 10 µM on PDK1 Direct kinase was 47%.

On PDK1 Direct kinase, `O=C(CCCNC(=O)c1cccn(Cc2ccc(F)c(F)c2)c1=O)Nc1ccc2c(c1)/C(=C/c1cnc[nH]1)C(=O)N2` [DF8, (Z)-N-(4-((3-((1H-imidazol-5-yl)methylene)-2-oxoindolin-5-yl)amino)-4-oxobutyl)-1-(3,4-difluorobenzyl)-2-oxo-1,2-dihydropyridine-3-carboxamide] displayed an inhibition at 10 µM above 50%.

As for `CO[C@H]1C[C@@H]2CC[C@@H](C)[C@@](O)(O2)C(=O)C(=O)N2CCCC[C@H]2C(=O)O[C@H]([C@H](C)C[C@@H]2CC[C@@H](OCCO)[C@H](OC)C2)CC(=O)[C@H](C)/C=C(\C)[C@@H](O)[C@@H](OC)C(=O)[C@H](C)C[C@H](C)/C=C/C=C/C=C/1C` [Everolimus, reference compound], the concentration for half-maximal inhibition (IC50) in assay [1] turned out to be 15 ± 1.2 nM; with U87MG cells, 50 ± 2.8 nM.

On to `O=C(CNC(=O)c1cccn(Cc2ccc(F)c(F)c2)c1=O)Nc1ccc2c(c1)CC(=O)N2` [IB32, 1-(3,4-difluorobenzyl)-2-oxo-N-(2-oxo-2-((2-oxoindolin-5-yl)amino)ethyl)-1,2-dihydropyridine-3-carboxamide], for which, at PDK1 Direct kinase, the inhibition at 10 µM was above 50% and the IC50 amounted to 6680 nM.

Regarding `O=C1Nc2ccc(NC(=O)c3cccn(Cc4ccc(F)c(F)c4)c3=O)cc2/C1=C/c1cnc[nH]1` [JJ31, (Z)—N-(3-((1H-imidazol-5-yl)methylene)-2-oxoindolin-5-yl)-1-(3,4-difluorobenzyl)-2-oxo-1,2-dihydropyridine-3-carboxamide], at PDK1 Direct kinase, the inhibition at 10 µM was above 50% and the IC50 was found to be 512 nM.

Source of the values: patent US10351548B2, “2-oxo-1,2-dihydropyridine-3-carboxamide compounds and their use as inhibitors of PDK1” (INTERNATIONAL SOCIETY FOR DRUG DEVELOPMENT S.R.L., priority 2015, dated 2019).
